Source: patent publication US11084799B2, “Polymorph of benzamide compound and preparation method and applications thereof” (SHENYANG SINOCHEM AGROCHEMICALS R&D CO., LTD., priority 2016, dated 2021)
“Also recorded” adds a separate entry of the source.

Tests used:
[1] = Pourability of 10% water suspending agent; format: physicochemical
From the text: (§1) The formulation includes the following composition: 10 parts of polymorph A of Compound 1 or polymorph B of Compound 1 obtained in above examples, 3 parts of sodium naphthalenesulfonate formaldehyde condensate, 3 parts of sodium salt of alkyl naphthalene sulfonic acid polycondensate, 0.1 part of white carbon black, 0.1 part of xanthan gum, 2 parts of pesticide emulsifier 0201B, 5 parts of glycol, 0.2 part of WJX-1 and water which is used to complement up to 100 parts by weight were successively added to a mixing tank for mixing. After conducting coarse grinding and homogenization through high shear, the mixture was grinded in a sand mill and detected the particle size of sanding materials through a sedimentograph. After the particle size meeting the standard requirements, the mixture was filtered to obtain 10% water suspending agent of polymorph A of Compound 1 or polymorph B of Compound 1.

[2] = Particle size distribution of 10% water suspending agent; format: physicochemical
From the text: as §1

[3] = Formulation sample (10% water suspending agent) kept at normal temperatures; format: physicochemical
From the text: as §1

[4] = Heat storage (54 ± 2° C.) of 10% water suspending agent; format: physicochemical
From the text: as §1

[5] = Insecticidal activity (pharmacodynamic stability), polymorph A versus polymorph B; settings: compared with polymorph B
From the text: (§2) The polymorph A also presents better performance than the compound 1 prepared by the method (example 5) in the patent WO02010003350A1 in the aspect of the physical properties of the formulation.

[6] = Crystal form stability during long-term storage; format: physicochemical
From the text: (§3) The advantages of the polymorph A in aspects such as chemical stability, filterability, solubility, hygroscopicity, melting point, solid density and flowability can have a significant impact on the developments of the production method and a formulation and on the quality and efficacy of a plant treating agent. […] The stability is favorable for determination of consistency of Compound 1. These features enable the polymorph A of Compound 1 to be well suitable for preparing a long effective and stable solid formulation so that the polymorph A has stable content of active component.

[7] = Dispersibility of 10% water suspending agent; format: physicochemical; settings: after normal temperature for 2 years and heat storage (54 ± 2° C./14 d)
From the text: as §1

[8] = format: physicochemical
From the text: In the present invention, the slurry of the polymorph B of Compound 1 is heated in the presence of the solvent to convert into the polymorph A of Compound 1. The solvent is selected from the alcohol solvent and/or water. The alcohol solvent is selected from methanol, ethanol, n-propanol, isopropanol, n-butanol and n-pentanol. The adopted solvent can well convert the polymorph B into the polymorph A. In addition, the water as the solvent is well used to convert the polymorph B into the polymorph A. Furthermore, in the conversion process, at a temperature not more than 100° C., almost 100% conversion is completed at high yield within proper time. In the selection of the solvent, the water is selected to effectively reduce cost compared with the organic solvent. […] As an alternative, if the polymorph A with high concentration is in the water, then the polymorph A can be separated through evaporation of the water.

[9] = Hygroscopicity on exposure to changing air humidity; format: physicochemical; settings: exposed to changing air humidity
From the text: as §3

[10] = Suspensibility in processing of the formulation; format: physicochemical; settings: compared with polymorph B
From the text: as §2

## CNC(=O)c1cc(Cl)cc(Cl)c1NC(=O)c1cc(Br)nn1-c1ncc(Cl)cc1Cl [Compound 1 Prepared by the Method in WO2010003350A1] [3-bromo-N-[2,4-dichloro-6-[(methylamino)carbonyl]phenyl]-1-(3,5-dichloro-2-pyridinyl)-1H-pyrazole-5-carboxamide, reference compound]
[1]; 10% water suspending agent
  Pourability: flow / flowability of the formulation sample: suspending agent has poor
  Pourability: residues after washed: unqualified.
[2]; suspending agent, no storage time stated
  Particle size distribution: distribution is wide.
[3]; suspending agent, after kept for 1 week
  Kept at normal temperatures: flowability of the formulation sample: suspending agent has poor
[4]; suspending agent, observed after heat storage for 3 days
  Heat storage (54 ± 2° C.): state of the formulation sample: solidified and could not shake.

## CNC(=O)c1cc(Cl)cc(Cl)c1NC(=O)c1cc(Br)nn1-c1ncc(Cl)cc1Cl [Polymorph A, 3-bromo-N-[2,4-dichloro-6-[(methylamino)carbonyl]phenyl]-1-(3,5-dichloro-2-pyridinyl)-1H-pyrazole-5-carboxamide]
[5]
  Insecticidal activity: better insecticidal activity
[6]
  Conversion into other crystal forms: does not convert into other crystal forms; also recorded: may not be converted into other crystal forms
  Stability: excellent stability
[7]
  Flowability (Dispersibility line): good dispersibility and good; also recorded: good flowability
[8]
  Solubility in the water: very low solubility
[1]; 10% water suspending agent
  Pourability (overall verdict): qualified.
  Pourability: flow / flowability of the formulation sample: good flowability; after
  Pourability: residues after washed: ≤ 0.5%; the pourability is
[1]; in the processing of the formulation, compared with polymorph B
  Pourability: better pourability
[2]; 10% water suspending agent, after normal temperature for 2 years and heat storage (54 ± 2° C./14 d), printed as almost unchanged
  Particle size distribution: unchanged.
[9]
  Hygroscopicity: does not present obvious hygroscopicity
[3]; 10% water suspending agent, after kept for two years
  Kept at normal temperatures: flowability of the formulation sample: suspending agent has good
[3]; 10% water suspending agent, after kept for two years, printed as almost unchanged
  Kept at normal temperatures: viscosity of the formulation sample: unchanged viscosity.
[4]; 10% water suspending agent, after kept for 14 days at 54 ± 2° C.
  Heat storage (54 ± 2° C.): flowability of the formulation sample: agent has good flowability
[10]
  Suspensibility: better suspensibility

## CNC(=O)c1cc(Cl)cc(Cl)c1NC(=O)c1cc(Br)nn1-c1ncc(Cl)cc1Cl [Polymorph B, 3-bromo-N-[2,4-dichloro-6-[(methylamino)carbonyl]phenyl]-1-(3,5-dichloro-2-pyridinyl)-1H-pyrazole-5-carboxamide]
[1]; 10% water suspending agent
  Pourability: flow / flowability of the formulation sample: suspending agent does not
  Pourability: residues after washed: unqualified.
[2]; 10% water suspending agent, after kept at normal temperature for 1 week
  Particle size distribution: wide.
[9]
  Hygroscopicity: obvious hygroscopicity
[3]; 10% water suspending agent, observed after kept for 2 h
  Kept at normal temperatures: state of the formulation sample of the suspending agent: suspending agent is solidified
[4]; 10% water suspending agent, observed after heat storage for 1 h
  Heat storage (54 ± 2° C.): state of the formulation sample: solidified and could not shake.
